Reference: US12465590B2, “Oxalamido-substituted tricyclic inhibitors of hepatitis b virus” (priority 2019, dated 2025)

Tests used:
Details in all cases: Hepatitis B virus, HepG2, read-out: EC50 ± StD (nM)
[1] = test system: HBV genotype A2; experiment: Antiviral effect on HBV genotypes, transiently transfected HepG2 cells; type: cell-based
Description: (§1) HepG2 cell line was used for HBV genotypes and core variants inhibition assays. HepG2 cell line is maintained in DMEM supplemented with 10% of fetal bovine serum, 1% of glutamine and 1% of penicillin/streptomycin.
(§2) For antiviral effect on HBV A-E genotypes, HepG2 cell line and DNA plasmids expressing HBV genome of different genotypes, from A to E, were used. HepG2 were transiently transfected with plasmid DNA harboring 1.1-mer-overlength genomic sequences of each HBV genotypes A to E isolates cloned into the pcDNA3.1/Zeo(−) vector as described in J Virol. 2010, 84, 3879-88 (https://doi.org/10.1128/JVI.02528-09). Each plasmid contains the 1.1×HBV genome under the control of a CMV promoter. The list of plasmid used is the following: pcDNA3.1-HBV1.1-A2 (HBV genotype A2), pcDNA3.1-HBV1.1—B2 (HBV genotype B2), pcDNA3.1-HBV1.1—C2 (HBV genotype C2), pcDNA3.1-HBV1.1-D (described as p26 in the above reference, HBV genotype D), pcDNA3.1-HBV1.1-E (HBV genotype E). Methods of generating plasmids are well know in the art (as for example in Viruses 2020, 12, 353, doi:10.3390/v12030353; Antiviral Research 144 (2017) 205-215, http://dx.doi.org/10.1016/j.antiviral.2017.06.016) and the selection of a suitable method is not a limitation on the present invention.
(§3) HepG2 cells were seeded in polylysine coated 96 multiwell plates at a density of 2*10^4 cells/well and incubated overnight at 37° C. The following day cells were transfected with the HBV plasmids (100 ng/well) using the Lipofectamine 3000 Reagent (Thermo Fisher Scientific) and following manufacturer instructions. After 5 h transfection mixtures were removed and cells were treated with serially diluted compounds in 0.5% DMSO at 8-point dose-response as previously described. After 96 hours of incubation at 37° C. with compound the supernatants were collected, centrifuged for cell debris clarification and incubated with DNase I amplification grade 1 Unit/50 μl (Sigma) for 1 h at 37° C. to allow plasmid input digestion. Quantification of extracellular HBV DNA with direct qPCR was performed as previously described. To avoid unspecific detection of HBV plasmid and to confirm plasmid digestion, specific primers designed across plasmid backbone and HBV sequence were added as controls (HBV-CNT-gt-F:5′-[…]-3′ (SEQ ID No. 3), HBV-CNT-gt-R:5′-[…]-3′(SEQ ID No. 4)). Antiviral activity data for each genotype are reported as EC50 mean value. Moreover the EC50 shift value is indicated, corresponding to the ratio between the observed EC50 and the EC50 for genotype D, which is used as reference genotype (see RESULTS, Table 2 legend). Excel and Graphpad Prism programs are typically used for data elaboration and EC50 calculation.

[2] = test system: HBV genotype B2; experiment: as above; type: cell-based
Description: as §1, §2, §3

[3] = test system: HBV genotype C2; experiment: as above; type: cell-based
Description: as §1, §2, §3

[4] = test system: HBV genotype D; experiment: as above; type: cell-based
Description: as §1, §2, §3

[5] = test system: HBV genotype E; experiment: as above; type: cell-based
Description: as §1, §2, §3

[6] = test system: HBV core protein variant F110I; experiment: Antiviral effect against core variants, transfected HepG2 cells; type: cell-based, HBV genotype D
Description: as §1, §3
(§4) The experimental procedure for antiviral effect against HBV core protein variants was similar to the one previously described for antiviral effect on HBV A-E Genotypes. Different core point mutations (F23Y, F110I, I105T, L37Q, T33N, T33P, T128I, V124G, Y118F) were selected based on their ability to reduce potency of CAMs currently in development (literature data) and introduced in the plasmids containing the HBV genome of genotype D (pcDNA3.1-HBV1.1-D, described above). The following list of plasmids was generated by site-directed mutagenesis of the parent plasmid pcDNA3.1-HBV1.1-D (p26 in J Virol. 2010, 84, 3879-88): pcDNA3.1-HBV1.1-D-CoreF23Y, pcDNA3.1-HBV1.1-D-CoreF110I, pcDNA3.1-HBV1.1-D-Core 1105 T, pcDNA3.1-HBV1.1-D-CoreL37Q, pcDNA3.1-HBV1.1-D-CoreT33N, pcDNA3.1-HBV1.1-D-CoreT33P, pcDNA3.1-HBV1.1-D-CoreT128I, pcDNA3.1-HBV1.1-D-CoreV124G, pcDNA3.1-HBV1.1-D-CoreY118F (point mutations in the nucleotide codon relative to the indicated core aminoacid substitution are the followings: TTC/TAC for F23Y, TTT/ATT for F110I, ATT/ACT for I105T, CTG/CAG for L37Q, ACC/AAC for T33N, ACC/CCC for T33P, ACT/ATT for T128I, GTG/GGG for V124G, TAT/TTT for Y118F). Antiviral activity data for each variant are reported as EC50 mean value and EC50 shift compared to wild type (see RESULTS, Table 4 legend). Excel and Graphpad Prism programs are typically used for data elaboration and EC50 calculation.

[7] = test system: HBV core protein variant F23Y; experiment: as above; type: cell-based, HBV genotype D
Description: as §1, §3, §4

[8] = test system: HBV core protein variant I105T; experiment: as above; type: cell-based, HBV genotype D
Description: as §1, §3, §4

[9] = test system: HBV core protein variant L37Q; experiment: as above; type: cell-based, HBV genotype D
Description: as §1, §3, §4

[10] = test system: HBV core protein variant T128I; experiment: as above; type: cell-based, HBV genotype D
Description: as §1, §3, §4

[11] = test system: HBV core protein variant T33N; experiment: as above; type: cell-based, HBV genotype D
Description: as §1, §3, §4

[12] = test system: HBV core protein variant T33P; experiment: as above; type: cell-based, HBV genotype D
Description: as §1, §3, §4

[13] = test system: HBV core protein variant V124G; experiment: as above; type: cell-based, HBV genotype D
Description: as §1, §3, §4

[14] = test system: HBV core protein variant Y118F; experiment: as above; type: cell-based, HBV genotype D
Description: as §1, §3, §4

Cc1cc(NC(=O)c2c3c(cn2C)S(=O)(=O)N[C@H]2CN(C(=O)C(=O)N[C@@H](C)C(F)(F)F)C[C@H]2CO3)ccc1F [Example E15, (3aR,10aR)—N-(4-fluoro-3-methylphenyl)-7-methyl-2-(2-oxo-2-(((S)-1,1,1-trifluoropropan-2-yl)amino)acetyl)-2,3,3a,4,10,10a-hexahydro-1H,7H-dipyrrolo[3,4-b:3′,4′-f][1,4,5]oxathiazocine-8-carboxamide 5,5-dioxide]
EC50 [1]: 2.14 ± 0.43 nM | EC50 [2]: 1.58 ± 0.7 nM | EC50 [3]: 0.72 ± 0.55 nM | EC50 [4]: 0.94 ± 0.49 nM | EC50 [5]: 1.79 ± 1.08 nM | EC50 [6]: 1.12 ± 0.3 nM | EC50 [7]: 6.33 ± 0.94 nM | EC50 [8]: 3.22 ± 1.45 nM | EC50 [9]: 8.72 ± 3.76 nM | EC50 [10]: 8.91 ± 5.85 nM | EC50 [11]: 46.9 ± 21.1 nM | EC50 [12]: 1.68 ± 0.37 nM | EC50 [13]: 6.8 ± 2.08 nM | EC50 [14]: 6.37 ± 1.84 nM
